Here are results for 5 compounds from PMC12337082 (Journal of Biochemical and Molecular Toxicology, 2025).

SMILES strings stand for the structures. Like-named read-outs stand apart in the source and are kept apart here.

Data set [1] has as its system MCF‐7. The following applies: cited from earlier work.
For data set [2], the system named is MDA‐MB‐231. The following applies: MDA‐MB‐231, 24 h, cited from earlier work.
Data set [3] deals with PGE2 release. The data set can be described thus: PGE2 ELISA, MCF‐7. It counts as cell-based, human. The following applies: MCF‐7, 3 µM. How it is done:
(§1) PGE2 ELISA kit (ENZO, ADI‐900‐001) was used to determine prostaglandin synthesis levels. MCF‐7 and MDA‐MB‐231 breast cancer cells were cultured at a density of 1 × 10^6 cells/well in a 6‐well culture dish. […] Following 24 h of incubation, the medium was replaced with a fresh one, 10 µM arachidonic acid was added, and it was further incubated for 1 h. The PGE2 levels were determined according to the kit protocol.
(An ELISA detects its analyte on a solid surface through an enzyme-linked reagent.)

The test system of data set [4] is PGE2 release. The data set can be described thus: PGE2 ELISA, MDA‐MB‐231. Type of data set: cell-based, human. The following applies: MDA‐MB‐231, 3 µM. How it is done: as §1
Data set [5] has as its system MCF‐7. Nature of the data set: MTT cell viability assay, MCF‐7. Type of data set: cell-based, human. The following applies: for IC50: Homo sapiens, MCF7, MTT. From the text:
(§2) MCF‐7, MDA‐MB‐231, and L‐929 mouse fibroblast cell lines were obtained from the American Type Culture Collection (ATCC, Manassas, Virginia, USA). MCF‐7 is a hormone‐responsive, differentiated mammary epithelium cell line with an ER+, PR+, and HER2‐ pattern (ATCC, HTB‐22). MDA‐MB‐231 is a triple‐negative differentiated mammary epithelium cell line (ATCC, HTB‐26). The L‐929 mouse fibroblast cell line is derived from the normal subcutaneous connective tissue of a mouse and is commonly used in cytotoxicity assays (ATCC, CCL‐1). All cell lines were cultured in DMEM medium (Dulbecco's Modified Eagle Medium, Gibco), supplemented with 10% fetal bovine serum (Gibco), 1% glutamine, and penicillin/streptomycin (Gibco) in a humidified atmosphere containing 5% CO2 at 37°C. Cell viability was tested using Trypan blue staining.
(§3) The MTT [3‐(4,5‐dimethylthiazol‐2‐yl)−2,5‐diphenyltetrazolium bromide] assay is a colorimetric assay for determining cell metabolic activity. In the MTT assay, the yellow dye MTT that dissolves in water is changed by mitochondrial reductase into a purple formazan that is non‐soluble. The water‐insoluble formazan produced is solubilized in a solubilization buffer, and absorbances are detected.
(§4) In 96‐well plates, the cells were cultivated at a density of 5 × 10^3 cells/well using 100 µL medium. […] 10 μL of the MTT labeling reagent (final concentration 0.5 mg/mL) were added to each well at the end of the incubation periods, and the wells were incubated for an additional 4 h. Next, each well received 100 μL of solubilization buffer (10% SDS in 0.01 M HCl) and was overnight incubated, and the absorbance of formazan products was evaluated at 550 nm using a multi‐mode microplate reader (Synergy H1, Biotech Instruments Inc., Vermont, USA). The results were normalized relative to the absorbances of calculated percent concentrations of DMSO. All tests involved three replicates with three independent experiments.
(§5) All statistical evaluations, including t‐tests and IC50 values, were calculated using the GraphPad Prism software tool (v6.0, GraphPad Software Inc., San Diego, USA). Statistical significance was defined as p ˂ 0.05 (*p < 0.05, **p < 0.01, ***p < 0.001, ****p < 0.0001).
(In general: Tetrazolium assays rely on reduction of a dye to a coloured formazan, in cell work by metabolically active cells.)

For data set [6], the system named is MDA‐MB‐231. Nature of the data set: MTT cell viability assay, MDA‐MB‐231. It counts as cell-based, human. The following applies: for IC50: Homo sapiens, MTT.
Excerpt: as §2, §3, §4, §5

Data set [7] concerns MCF‐7, MDA‐MB‐231, and L‐929. The data set can be described thus: MTT cell viability assay, statements over all cell lines. Type of data set: cell-based. The following applies: 25 µM; MCF‐7, MDA‐MB‐231 and L‐929; not dose‐dependent.
Excerpt: as §2, §3, §4
All statistical evaluations, including t‐tests and IC50 values, were calculated using the GraphPad Prism software tool (v6.0, GraphPad Software Inc., San Diego, USA). […]

The test system of data set [8] is L‐929 mouse fibroblast cell line. The data set can be described thus: MTT cell viability assay, L‐929 control fibroblasts. The conditions noted are these: Mus musculus. It counts as cell-based.
Excerpt: as §2, §3, §4, §5

One may read the IC50 as the concentration that gives 50% inhibition. Take `O=c1[nH]cc(F)c(=O)[nH]1` [5‐FU]: the IC50 in the data set with MCF‐7 [1] (MCF‐7, 24 h, ref Badawi et al. (2023) [68]) is 17 µM; in the data set on MDA‐MB‐231 [2] (ref Badawi et al. (2023) [68]) it was 11.7 µM.

As for `CS(=O)(=O)c1ccc(-c2cc(Br)sc2-c2ccc(F)cc2)cc1` [DUP‐697], the “Reduction of PGE2 release” value in the data set with PGE2 release [3] was 46%; in the data set on PGE2 release [4] it was 88%.

Turning to `CC(C)Cc1ccc(C(C)C(=O)O)cc1` (stereo not drawn) [Ibuprofen], the IC50 in the data set on MCF‐7 [1] (MCF‐7, 48 h, ref Daniel Pedro‐Hernández et al. (2020) [67]) was 92.1 µM.

With `O=C(O)C(=O)O.[NH-][C@@H]1CCCC[C@H]1[NH-].[Pt+2]` [Oxaliplatin], the IC50 in the data set with MCF‐7 [1] (MCF‐7, 24 h, ref Raymond et al. (1997) [66]) is 7.4 µM; in the data set with MDA‐MB‐231 [2] (ref Raymond et al. (1997) [66]), 17.9 µM.

On to `CCc1cccc2c3c([nH]c12)C(CC)(Cc1n[nH]c(=S)n1Cc1ccccc1)OCC3` (stereo not drawn) [SGK 242, 5‐[(1,8‐Diethyl‐1,3,4,9‐tetrahydropyrano[3,4‐b]indole‐1‐yl)methyl]‐4‐benzyl‐2,4‐dihydro‐3H‐1,2,4‐triazole‐3‐thione], for which the concentration for half-maximal inhibition (IC50) came to 22 ± 0.1 µM in the data set with MCF‐7 [5] (MCF‐7, 24 h); 12 ± 3.3 µM in the data set on MCF‐7 [5] (MCF‐7, 48 h); 31 ± 2.5 µM in the data set with MDA‐MB‐231 [6] (MDA-MB-231, 24 h, MDA‐MB‐231, 24 h); 24 ± 1.2 µM with MDA‐MB‐231 [6] (MDA-MB-231, 48 h, MDA‐MB‐231, 48 h); 38 ± 8.05 µM in data set [8] (L929, 24 h, L‐929, 24 h); 44.2 ± 2.45 µM in data set [8] (L929, 48 h, L‐929, 48 h). The “Selectivity index (SI)” value turned out to be 1.7 in the data set on MCF‐7 [5] (MCF‐7 in comparison to L‐929, 24 h); 3.6 in the data set with MCF‐7 [5] (MCF‐7 in comparison to L‐929, 48 h); 1.2 in the data set with MDA‐MB‐231 [6] (MDA‐MB‐231 in comparison to L‐929, 24 h); 1.8 in the data set with MDA‐MB‐231 [6] (MDA‐MB‐231 in comparison to L‐929, 48 h). The “Toxicity on all cell lines” value in data set [7] is recorded as “severe toxicity”.
